In US20140154717A1, “METHOD FOR DETECTING CANCER CELL USING FLUORESCENTLY LABELED L-GLUCOSE DERIVATIVE, AND CANCER CELL-IMAGING AGENT COMPRISING FLUORESCENTLY LABELED L-GLUCOSE DERIVATIVE” (priority 2011, published 2014):
Entries after “also recorded” stand apart in the source; their conditions may differ.

Columns and labels:
tumor cells (C6 glioma) = experiment: In vivo fluorescent imaging using C6 tumor model mice (rat glioma C6 cells transplanted subcutaneously in nude mice); parameters: species or system mouse
Procedure: C6 cells were prepared according to an ordinary method so that the cell number was 2×10^7 cells/mL.
C6 cells were seeded on a 10 cm petri dish, allowed to stand still in a CO2 incubator, and cultured at 37° C. The culture medium was exchanged once every two days.
1 g/L glucose-containing Dulbecco's modified Eagle's Medium (DMEM) (Nacalai No. 08456-65), to which Fetal Bovine Serum (Equitech-Bio SFBM) was added so that the final concentration was 10% and penicillin-streptomycin (Nacalai No. 26253-84) was added so that the final concentration was 1%, was used.
5 to 6-week old athymic nude mice (BALB/cAJcl-nu/nu) were transplanted with 50 μL of a cell suspension adjusted to 2×10^7 cells/mL subcutaneously around the root of right hind paw, under isoflurane anesthesia. The transplanted tumor cells were observed until growing to about 200 to 300 mm^3, and used in vivo fluorescent imaging.
C6 tumor model mice were allowed to stand still in an in vivo fluorescence imaging apparatus IVIS (registered trademark) Kinetics (Caliper Life sciences) under isoflurane anesthesia and autofluorescence of the mouse skin was measured, and subsequently, 400 nmol (100 μL) of 2-NBDLG or 2-NBDG dissolved in physiological saline was administered from the tail vein over a period of 30 seconds, and measurement of the fluorescence imaging was started again from one minute after starting administration. The in vivo fluorescence imaging was measured at an excitation wavelength of 465 nm using a GFP filter (transmittable fluorescence wavelength: 515-575 nm). The measurement was conducted for 45 minutes, and images were taken every one minute during the initial 20 minute and every 5 minutes from 20 to 45 minutes, obtaining 25 images in total. The accumulated values (fluorescence value) of 2-NBDLG and 2-NBDG in the interested area were obtained by subtracting the autofluorescence images from the 25 images taken after administration of 2-NBDLG or 2-NBDG.
A vial of 0.5 mg of 2-NBDLG or 2-NBDG was dissolved in 400 μL of physiological saline directly before the experiment, to prepare a solution having a final concentration of 400 nmol/100 μL.

[1] = system: mouse insulinoma cells (MIN6); experiment: Uptake into MIN6 cells with or without inhibitors, fluorescence microplate reader (Flex Station); format: cell-based; details: 200 μM, 5 minutes
Procedure: A difference in the uptake of 2-NBDLG (200 μM) and 2-NBDG (200 μM) into mouse insulinoma cells (MIN6) each applied for 5 minutes was analyzed quantitatively by a fluorescence microplate reader Flex Station (manufactured by Molecular Devices Corporation) in the condition whether or not various inhibitors are present. The well used for measurement was a 96-well clear bottomed well plate μ CLEAR-PLATE (Greiner bio-one, BLACK, 96 well, #655090) having longitudinally […] to 12 twelve columns, and MIN6 cell suspension prepared at a proportion of 6×10^5 cells/mL was seeded uniformly into wells from line B to line G at the third column and the fifth column each in an amount of 15 μL. For medium exchange, the half quantity was exchanged every two days in 0 to 4 DIV (days in vitro), and from 5 DIV or later, exchanged every day, and on days 10 to 13 (10 to 13 DIV), the cells were subjected to an experiment. Line A and line H were used as a control for checking correct washout, without seeding cells. In the fourth column, cells were not present, and wells in this column were used as a blank containing only Krebs Ringer buffer solution (KRB, containing 0.1 mM gap junction inhibitor carbenoxolone and 5.6 mM glucose). Evaluation was done in a way that 2-NBDLG or 2-NBDG was charged in each tube of a 8-strip PCR tube, and sucked using a 8-channel pipette and dropped simultaneously into wells. In this way, administration to wells for 2-NBDLG and to wells for 2-NBDG can be done simultaneously, making reliable evaluation possible. As described above, cells are present in 12 wells in the third and the fifth two columns, and these were divide into 4 groups each having 3 wells according to a difference either 2-NBDLG or 2-NBDG and whether an inhibitor is present or absent. Specifically, when checking the effect by the presence or absence of a GLUT inhibitor Cytochalasin B (10 μM) on the uptake of 2-NBDLG (200 μM) and 2-NBDG (200 μM), first, in wells, which are planned to be measured in the presence of Cytochalasin B, Cytochalasin B was added 5 minutes prior to the administration of the fluorescently labeled glucose derivative. Before administration of a fluorescently labeled glucose derivative, the autofluorescence was measured in each well. The measurement was done with Flex Station in Well Scan Mode and in the Bottom Read position at Ex 470 nm, Em 540 nm, Cut off 495 nm, Averaging 3, and Photomultiplier sensitivity: high. In Well Scan Mode of the fluorescence microplate reader Flex Station, one well was divided into nine observation areas and these are measured independently. The presence of approximately 5000 cells in each of 9-divided areas was separately confirmed by Z section measurement of a realtime deconvolution microscope. 2-NBDG and 2-NBDLG were administered with or without Cytochalasin B (37° C., 5 minutes), and after cessation of administration, an operation of adding 250 μL of a KRB solution containing no fluorescently labeled glucose into 50 μL of a solution in a well was repeated 7 times while measuring with a stopwatch, thereby performing washout until the fluorescence intensities of wells in line A and line H set as a control group became equal to the fluorescence intensity of the blank well containing no cell. This process required 7 minutes, and even if cells having broken plasma membrane condition are brought into contact with 2-NBDG and 2-NBDLG, and even if these compounds are once taken up into the cell, these compounds are already eliminated out of the cell and are washed away in measurement, therefore, contribution to an increase in the fluorescence intensity in the whole observation area was judged to be in an ignorable level. This was supported by a separate pharmacological inhibition experiment in which the increase in the fluorescence intensity nearly disappears in the presence of an inhibitor. The above-described method was carried out similarly in the case of other inhibitors. […]

[2] = system: acutely dissociated neurons; experiment: Confocal imaging of 2-NBDLM+2-TRLG mixture in acutely dissociated neurons of substantia nigra pars reticulata; format: cell-based, mouse
Procedure: NaCl 150 mM, KCl 5 mM, MgCl2 1 mM, CaCl2 2 mM, HEPES 10 mM, pH was adjusted to 7.4 by 1M Tris(2-amino-2-hydroxymethyl-1,3-propanediol) solution. The glucose concentration was 10 mM. For the purpose of inhibiting entrance and elimination of fluorescently labeled mannose via a gap junction/hemichannel, 0.1 mM Carbenoxolone (SIGMA #C4790) was added.
NaCl 124 mM, NaHCO3 26 mM, KCl 5 mM, KH2PO4 1.24 mM, CaCl2 2.4 mM, MgSO4.7H2O 1.3 mM, Glucose 10 mM, adjusted to pH7.4 by 95% O2-5% CO2 aeration.
A solution prepared by dissolving 5 mg of poly-L-lysine hydrobromide (SIGMA P6282) in 50 mL of 0.15 M boric acid (adjusted to pH 8.4 with […]) was stocked and refrigerated. This stock solution was diluted at 1/500 to 1/1000 with 0.15 M boric acid, and a cover slip (13 mm×22 mm, Matsunami No. 0 glass) was immersed in the diluted solution and allowed to fix at room temperature for 20 minutes, then, rinsed with distilled water and naturally dried.
Since 2-NBDLM is a stereoisomer of 2-NBDLG and both compounds have the same molecular weight, these compounds were prepared by basically the same method as for preparation of 2-NBDLG liquid and 2-NBDLG+2-TRLG mixture described in the prior publication WO2010/016587 of the present inventors. The concentration of a solution for the administration was as follows. The whole quantity of a 0.5 mg vial was dissolved in 14.6 mL of a HEPES solution for image acquisition to give a 2-NBDLM solution having a final concentration of 100 μM. The dissolving method was carried out similarly to that for preparation of a 2-NBDLG solution in Example 3.
Acutely dissociated neuronal cells were prepared as described below according to the same method as described in the prior publication WO2010/016587 of the present inventors.
Postnatal 13 to 17-day old (juvenile stage) C57BL/6J mice were anesthetized deeply with urethane (i.p. 1.6 g/kg), decapitated according to an ordinary method, then, brain was taken out while pouring a cold Ringer's solution (0° C.) for dissociation, and placed on an ice-cold petri dish and immediately trimmed, then, coronally sectioned brain slices having a thickness of 400 or 500 μm were prepared by a linear slicer (Dosaka Pro7) in a cold Ringer's solution (0° C.). Then, the slice was allowed to restore for 1 hour at room temperature in a chamber (Acrylic incubation chamber manufactured by Harvard Apparatus) containing the above-described Ringer's solution circulating therein through which 95% O2-5% CO2 had been aerated.
The brain slice was immersed in an enzyme solution (31° C.; kept at pH7.4 by aeration with 95% O2-5% CO2) prepared by dissolving a proteolytic enzyme Pronase (10 mg/60 mL) in the above-described Ringer's solution and enzymatically treated. After predetermined period, the enzymatic reaction was stopped by immediately immersing the brain slice in 50-100 mL of a 10 mM glucose-containing HEPES solution at room temperature.
A 60 or 100 mm plastic dish having a silicon plate attached to the bottom was filled with a 10 mM glucose-containing HEPES solution (room temperature, obtained by removing Carbenoxolon from a HEPES solution for confocal image acquisition), and the above-described brain slice was immersed in the solution. Two 27 gauge syringe needles were used to immobilize the brain slice, and left and right mesencephalic substantia nigra pars reticulata were punched out under a microscope with a 18 gauge syringe needle having a tip deformed into an ellipsoidal shape, and preserved at room temperature in the above-described HEPES solution (35 mm culture dish).
Neurons were dissociated by trituration with glass pipettes adjusted to have various point diameters, and allowed to adhere to a glass cover slip coated with poly-L-lysine.
Administration of a mixture was carried out in the same manner as the method of administration to MIN6 cells described in Example 3 (4) to (6).

[3] = Maximum excitation and fluorescence wavelength; format: physicochemical
[4] = 100 μM 2-NBDLM+20 μM 2-TRLG for 5 minutes

SMILES: O=[N+]([O-])c1ccc(NC2C(O)OC(CO)[C@@H](O)[C@@H]2O)c2nonc12 (stereo partly drawn) [2-NBDG, 2-[N-(7-nitrobenz-2-oxa-1,3-diazole-4-yl)amino]-2-deoxy-D-glucose, reference compound]
- fluorescence values at tumor-transplanted part (Tumor) versus normal tissue (BG), FIG. 3 (tumor cells (C6 glioma); 400 nmol i.v., temporal change over 45 minutes, same result in 6 examples): fluorescence values at normal tissue (red square, BG) are larger than at the tumor-transplanted part
- time from which accumulations at the tumor cell-transplanted part were recognized (tumor cells (C6 glioma); 400 nmol/100 μL from the tail vein): around 5 minutes after administration
- contrast between tumor-transplanted part and normal tissue (adipocyte-rich dorsal part near neck) (tumor cells (C6 glioma); 400 nmol/100 μL from the tail vein, non-fasted mice): poor contrast; also recorded: not sufficient
- uptake/accumulation in normal tissue (tumor cells (C6 glioma); 400 nmol/100 μL from the tail vein, normal tissue (fat tissue on the back, between back bones, muscle)): Intense accumulations
- effect of GLUT inhibitor Cytochalasin B on uptake into MIN6 cells ([1]; 37° C., Cytochalasin B (10 µM, CB)): significant decrease
- uptake into MIN6 cells in buffer containing Na+ versus no Na+ ion (SGLT) ([1]; 37° C., Na(−) buffer, choline substituted): no significant difference
- effect of Phloretin on uptake into MIN6 cells ([1]; Phloretin (150 μM, PHT)): underwent inhibition of the uptake

SMILES: O=[N+]([O-])c1ccc(NC2C(O)OC(CO)[C@H](O)C2O)c2nonc12 (stereo partly drawn) [2-NBDLM, 2-Deoxy-2-[N-(7-nitrobenz-2-oxa-1,3-diazol-4-yl)amino]-L-mannose]
- fluorescence in degraded cells, 10 minutes after cessation of administration ([2]; 100 μM 2-NBDLM+20 μM 2-TRLG): already decreased significantly
- fluorescence in healthy neuron, 10 minutes after cessation of administration ([2]; 100 μM 2-NBDLM+20 μM 2-TRLG): preserved in the cell
- fluorescence in healthy neuron, 22 minutes after cessation of administration ([2]; 100 μM 2-NBDLM+20 μM 2-TRLG): preserved in the cell
- uptake into healthy neuron, 2 minutes after cessation of administration ([2]; 100 μM 2-NBDLM+20 μM 2-TRLG): all cells take up
- uptake into normal neurons (conclusion) ([2]; 100 μM 2-NBDLM+20 μM 2-TRLG): taken up into normal mouse neurons
- uptake into degraded cells during administration [2, 4]: completely invading a cell
- uptake into healthy neuron during administration [2, 4]: taken up into a cell during administration
- Maximum excited wavelength [3]: 472 nm
- Maximum fluorescence wavelength [3]: 539 nm

SMILES: CN(C)S(=O)(=O)c1ccc(N[C@H](C=O)[C@H](O)[C@@H](O)[C@@H](O)CO)c2nonc12 [2-DBDLG]
- Maximum fluorescence wavelength [3]: 570 nm

SMILES: O=[N+]([O-])c1ccc(NC2C(O)OC(CF)[C@H](O)C2O)c2nonc12 (stereo partly drawn) [6-F-2-NBDLG, 2,6-Dideoxy-6-fluoro-2-[N-(7-nitrobenz-2-oxa-1,3-diazol-4-yl)amino]-L-glucopyranose]
- Maximum excited wavelength [3]: 472 nm
- Maximum fluorescence wavelength [3]: 538 nm
